Measured values from patent US20040258954A1, “Conjugated molecule and electroluminescent device thereof and electronic device having the electroluminescent device” (Semiconductor Energy Laboratory Co., Ltd., priority 2003, published 2004).

Tests used:
Solubility to chloroform = type: physicochemical
Description: In this embodiment, an effect of introducing a substituent other than hydrogen into R^5 and R^6 of the compounds represented by the general formulas [Chem. 5] to [Chem. 8] will be described. […] In contrast, in the case where R^5 and R^6 are trimethylsilyl groups, the solubility to chloroform at 25° C. is 15.4 wt. %. Thus, it is possible to considerably improve the solubility by introducing the substituent into R^5 and R^6.

[1] = Cyclic voltammetry, oxidation potential; type: physicochemical; settings: acetonitrile, tetrabutyl ammonium perchlorate, platinum electrodes
Description: The cyclic voltammetry measurements were conducted by using acetonitrile as a solvent and tetrabutyl ammonium perchlorate as a supporting electrolyte. Each of a working electrode and a counter electrode was made from platinum. […] […] Therefore, in the compounds represented by the general formulas [Chem. 5] to [Chem. 8], it is preferable that the cyclic structures are formed by R^1 and R^2 and by R^3 and R^4, and this is supported by the result of this example.

Compound	solubility to chloroform (Solubility to chloroform)	oxidation potential [1]
c1cc(-c2scc3c2OCCO3)ccc1-c1scc2c1OCCO2 [Chem. 9, 1,4-di-(3,4-ethylenedioxy-2-thienyl)benzene]	less than 1 wt. %	1.20 V
CCCCCCOc1csc(-c2ccc(-c3scc(OCCCCCC)c3OCCCCCC)cc2)c1OCCCCCC [Chem. 11, 1,4-bis(3,4-dihexyloxy-2-thienyl)benzene]	–	1.68 V
